# According to patent US7423017B2, “Method for treating cartilage disorders” (Genentech, Inc., priority 1997, dated 2008):
# Entries after “also recorded” stand apart in the source; their conditions may differ. Positions of bridges follow the written chain, without caps; N, C: chain ends. Residues, ends and D or L forms follow the SMILES beside them. No end group written: not given here.
# What was measured:
# [1] = system: human articular cartilage explants; assay: human articular cartilage explants: matrix breakdown (proteoglycan release); assay type: cell-based; settings: peptide 0.1 mg/ml
# Experimental: The metacarpophalangeal joint of a six-month old pig was cultured as described above for bovine articular cartilage in Example 8. This explant was cultured in media alone or in media with D12K, D12R, or wild-type IGF-1 (at 10 nM) alone or in the presence of IL-1α at 1 ng/ml, as described above. Human explants were from patients undergoing joint replacement surgery. Articular cartilage was harvested, aliquoted (40-45 mg/tube) and cultured as above. […] Fresh media was added on days 0, 1, 2, and 3. Matrix breakdown was determined by measuring the amount of proteoglycans in the media using the DMMB assay as set forth above. Matrix (proteoglycan) synthesis was determined by measuring ^35S-sulfate uptake as set forth above.
# Human articular cartilage explants were cultured in media or treated with IGF-1 by itself or in combination with either BP3-40 or BP3-15 at 0.1 mg/ml as set forth above. Matrix breakdown was determined by measuring the release of proteoglycans into media as described above. Matrix synthesis was determined by counting the amount of ^35S-sulfate incorporated into the cartilage tissue as described above.
# [2] = system: human articular cartilage explants; assay: human articular cartilage explants from diseased joints: matrix synthesis (35S-sulfate uptake); assay type: cell-based; settings: IGF-1 40 ng/ml; peptide 0.1 mg/ml
# [3] = molecular target: T1, IGFBP-3 (Homo sapiens, UniProt P17936); assay: BIACORE competition assay: IGFBP-3 binding to immobilized IGF-1; settings: IGF-1 inhibition; wt = BP3-01-ox
# T1 construct: made in house
# T1 sequence (P17936 28-291): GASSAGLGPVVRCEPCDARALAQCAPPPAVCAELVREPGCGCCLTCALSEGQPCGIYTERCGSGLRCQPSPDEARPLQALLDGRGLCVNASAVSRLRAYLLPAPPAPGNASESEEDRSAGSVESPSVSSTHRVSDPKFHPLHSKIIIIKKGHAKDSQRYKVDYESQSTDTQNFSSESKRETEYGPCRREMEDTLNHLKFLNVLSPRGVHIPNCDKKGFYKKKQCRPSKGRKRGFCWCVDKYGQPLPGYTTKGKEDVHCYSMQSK
# Experimental: IGF-1 was immobilized on a dextran chip for inhibition assays using a BIACORE™ 2000 surface-plasmon-resonance device (BIAcore, Inc., Piscataway, N.J.) to measure free binding protein. IGF-1 was biotinylated as described above, and injected over a chip to which streptavidin had been coupled (BIAcore, Inc.) to give 400 to 800 RU (response units) of immobilized IGF-1. […] Serial dilutions of peptide were mixed with a constant concentration (40 nM) of IGFBP-3. After incubation for >1 hour at room temperature, an aliquot of 20 μL was injected at a flow rate of 20 μL/min over the IGF-1 chip. Following the injection, a response reading was taken to measure the relative amount of IGFBP-3 bound to the IGF-1.
# [4] = molecular target: IGFBP-3; assay: displacement of 125I-IGF-1 from IGFBPs in human serum, size-exclusion chromatography; assay type: binding; settings: peptide at 0.2 mM
# Experimental: This Example tests an IGFBP-3-specific peptide, BP3-15, for its ability to block the binding of ^125I-IGF-1 in human serum. Human serum was incubated with ^125I-IGF-1 ± the peptide and the amount of tracer bound to IGFBPs via size-exclusion chromatography was measured.
# [5] = molecular target: T2, IGFBP-1 (Homo sapiens, UniProt P08833); assay: biotinylated-IGFBP-1 ELISA plate assay of IGF-I:IGFBP-1 inhibition; assay type: binding; design: made in house; host or cells: CHO cells
# T2 sequence (P08833 26-259): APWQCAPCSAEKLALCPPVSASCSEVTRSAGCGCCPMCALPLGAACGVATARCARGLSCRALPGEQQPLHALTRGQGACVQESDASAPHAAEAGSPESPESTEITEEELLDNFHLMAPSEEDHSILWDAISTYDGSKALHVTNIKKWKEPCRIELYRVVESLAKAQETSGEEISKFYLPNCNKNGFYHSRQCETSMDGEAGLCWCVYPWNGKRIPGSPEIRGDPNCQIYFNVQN
# From the text: A second series of peptides made use of non-natural amino acids to probe whether other structural features such as an added methyl group at the alpha carbon, or an isomer (D-alanine) could affect peptide binding to IGFBP-1.
# BP1-16 (SEQ ID NO:35), a 13-residue version of BP1-01 (lacking the C-terminal Gly), had similar affinity to that of BP1-01. Substitutions at the N-terminus or C-terminus yielded affinity improvements.
# [6] = molecular target: T2, IGFBP-1; assay: KIRA cell-based assay of IGF-like activity displaced by peptides from IGF-1/IGFBP-1; settings: 2 nM IGF-1, […] IGFBP-1
# Experimental: A cell-based (KIRA) assay was previously described for measuring the amount of IGF-like activity displaced by peptides from mixtures of IGF-1 and binding proteins (Lowman et al., supra, 1998; WO 98/45427, supra). The KIRA assay was used to compare in vitro bioactivity of BP1-16, BP1-02, BP1-25, and BP1-40. […] IGF-1 and peptide were mixed and added to cells expressing IGF receptor for 30 min, then IGFBP-1 was added for an additional 1 h.
# [7] = molecular target: T2, IGFBP-1; settings: cited from earlier work
# [8] = system: IGFBP-1; assay: competitive phage ELISA of IGF-1 mutants, IGFBP-1; assay type: binding, human; settings: relative IC50 IGFBP-1/relative IC50 IGFBP-3
# Procedure, shortened: (§1)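 Alanine-scan IGF-1 mutants on phage competed with soluble IGFBP-1 or IGFBP-3 (threefold dilutions over six logs, from 5 μM and 500 nM respectively) for binding to plates coated with 1 μg/ml of the same protein in PBS pH 7.2. Incubation was 1 h at room temperature in 0.5% Tween 20/PBS. Bound phage was detected by anti-phage/HRP ELISA; IC50 is the mean±SD of at least two clones.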
# [9] = molecular target: T1, IGFBP-3; assay: competitive phage ELISA of IGF-1 mutants, IGFBP-3; assay type: binding; settings: phage display, soluble IGFBP-3 competitor
# Procedure, shortened: as §1
# [10] = molecular target: T2, IGFBP-1; assay: competitive phage ELISA of IGF-1 mutants, IGFBP-1; assay type: binding; design: made in house; host or cells: CHO cells; settings: phage display, soluble IGFBP-1 competitor
# Procedure, shortened: as §1
compound,measurement,setting,value
CC(C)C[C@@H]1NC(=O)[C@H](Cc2ccc(O)cc2)NC(=O)[C@H](Cc2c[nH]c3ccccc23)NC(=O)[C@H](CCC(=O)O)NC(=O)[C@H](C)NC(=O)[C@H](C(C)C)NC(=O)[C@@H]2CCCN2C(=O)[C@H](Cc2c[nH]c3ccccc23)NC(=O)[C@@H](NC(=O)[C@@H](NC(=O)[C@H](CCC(=O)O)NC(=O)[C@H](CCC(=O)O)NC(=O)[C@@H](N)CO)C(C)C)CSSC[C@@H](C(=O)N[C@@H](CC(N)=O)C(=O)O)NC1=O [BP3-15] (H-SEEVCWPVAEWYLCN-OH; disulfide 5-14; N-terminus and C-terminus assumed),"matrix breakdown, IGF-1 in combination with peptide",[1],appeared to enhance the ability of IGF-1 to decrease matrix breakdown
same,"matrix synthesis, IGF-1 in combination with peptide",[2],to stimulate matrix synthesis; also recorded: enhance anabolism
same,IC50 (mut) / IC50 (wt),[3],0.36
same,125I-IGF-1 binding to the 44-KD IGFBPs,[4],did not decrease
same,decrease in 125I-IGF-1 associated with the 150-KD IGF/IGFBP-3/ALS complex,[4],~42%
same,increase in the amount of free 125I-IGF-1,[4],59%
CRAGPLQHLCEKYF [BP1-24],Fold potency reduction IC50 (mut) / IC50 (BP1-16),[5],< 10
CRAGPLQWLCEKYF-nh2 (CRAGPLQWLCEKYF-NH2; disulfide 1-10 (inferred)) [BP1-16],Fold potency reduction IC50 (mut) / IC50 (BP1-16),[5],-1-
same,"matrix synthesis, IGF-1 in combination with peptide",[2],enhance anabolism
same,EC20 (concentration at which 20% of maximal IGF-1 activity is observed),[6],150 to 200 nM
R50A: IGF-1 single alanine mutant,decrease in affinity for IGFBP-1,[7],3 fold
same,relative specificity,[8],2.3
same,IC50,[9],0.64 ± 0.18 nM
same,IC50,[10],16.2 ± 1.8 nM
